Results: US20210386709A1, “COMPOSITIONS AND METHODS FOR SUPPRESSING MSUT2” (United States Government As Represented By The Department …, priority 2020, published 2021)

Target: T1, GST-MSUT2 (Homo sapiens, UniProt Q6PJT7)
T1 construct: Targeted construct consisted of the c-terminal end (dark blue and amino acids 601-736) of MSUT2; made in house; host or cells: E. coli BL21 (DE3)
T1 sequence (Q6PJT7 601-736): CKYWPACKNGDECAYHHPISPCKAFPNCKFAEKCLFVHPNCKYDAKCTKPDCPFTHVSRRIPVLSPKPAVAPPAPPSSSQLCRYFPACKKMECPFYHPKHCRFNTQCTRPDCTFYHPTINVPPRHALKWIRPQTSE
Experiment: Alpha Screen assay of biotinylated poly(A) RNA:GST-MSUT2 binding
Conditions: by Alpha assay
Description: Alpha Screen Assay. Samples were set up in 384 well Perkin Elmer white opaque-bottom plates (PE06). A total reaction volume of […] was plated in 384 format using a CyBio Well Vario (6 μL of donor beads (10 μg/mL), 3 μL biotinylated RNA (250 nM), 3 μL GST-MSUT2 protein (250 nM) per well). 50 nL of compounds were transferred to wells via CyBio Vario equipped with Pin Tool. This mixture was incubated at room temperature for 30 minutes away from light. Next 3 μL of acceptor beads (1.25 μg/mL) was added. Plates were incubated at room temperature away from light for 60 minutes and subsequently read on a Perkin Elmer EnVision multimode microplate reader equipped with stackers using a standard 384-well Alpha Assay software protocol.
Results. Alpha Screen design and underlying principle. Alpha Screen technology relies on donor beads, coated with a hydrogel excitable by 680 nm, brought within close proximity to an acceptor bead leading to light emission and detection. In this assay, streptavidin coated donor beads tightly bind to biotinylated-poly(A) RNA while the glutathione-coated acceptor bead binds to GST-tagged MSUT2 protein. […] When this interaction is blocked by an inhibitor, the proximity threshold for donor and acceptor beads is not met, singlet oxygen transference cannot occur, and light is not emitted by the acceptor bead (FIG. 1a).
Identification and validation of MSUT2 inhibitory compounds from NIHCC library. The single-point primary screen was conducted in duplicate and utilized the FP assay conditions determined herein (e.g., 125 nM MSUT2 RNABP and 10 nM FAM-RNA probe) with 10 μM library compounds added in a 96-well format. […] Compound specificity was empirically tested by counter screening against PABPN1, a regulator of the length of mRNA poly(A) tails (Apponi, L. H. et al. Hum Mol Genet 19, 1058-1065, (2010); and Benoit, B. et al. Dev Cell 9, 511-522, (2005)). IC50 of each of the previous 8 compounds was determined for PABPN1 using fluorescence polarization (FIG. 11), and a specificity ratio determined (Table 3). An Alpha Screen (AS) assay was developed as an orthogonal screen. Briefly, in this screen, biotinylated RNA binds streptavidin-coated donor beads, while GST-MSUT2 ZF binds glutathione-coated acceptor beads. […] Toxicity of these compounds in a HEK cell model was determined using a standard Promega Cell Titer Glo assay.
Alpha Screen Assay. […] The plate was then incubated again at room temperature away from light for 60 minutes and subsequently read on a Perkin Elmer EnSight multimode microplate reader using a standard 96-well Alpha Assay protocol.

Ki: 1.58 µM
SMILES: O=c1c2ccccc2[se]n1-c1ccccc1 [Ebselen]
